{"source": "patent US6506607B1", "about": "“Methods and compositions for the identification and assessment of prostate cancer therapies and the diagnosis of prostate cancer” (Millennium Pharmaceuticals, Inc., priority 1997, dated 2003)", "system": "LNCaP cells", "method": "After 25 hours of incubation in testosterone-containing medium, the cells were detached from the flasks with trypsin and pelleted. Five T162 flasks of pretreated cells were used as a control. Untreated cells were collected in the same manner.\nTotal RNA was prepared from the cell pellets using the RNeasy protocol (Qiagen).\nThe PCR products representing partial cDNAs of putatively differentially expressed mRNAs were subcloned into pCR2.1 (InVitrogen) and transformed into INValphaF^1 cells.\nThe differentially expressed genes were then identified by screening on a Gene Expression Micro-Array™ (Synteni, Inc.; Fremont, Calif.).\nIn some cases only a partial sequence is presented in the corresponding figure. The various methods described herein can employ complete sequences or fragments thereof."}
{"smiles": "C[C@]12CC[C@H]3[C@@H](CCC4=CC(=O)CC[C@@]43C)[C@@H]1CC[C@@H]2O", "note": "[testosterone]", "values": [{"measurement": "Fold Increase In mRNA: 54 kDa progesterone receptor-associated immunophilin FKBP54", "value": 2.5}, {"measurement": "Fold Increase In mRNA: Ankyrin G (ANK-3) (U13616)", "value": 2.7}, {"measurement": "Fold Increase In mRNA: Aryl hydrocarbon receptor nuclear translocator", "value": 4.6}, {"measurement": "Fold Increase In mRNA: BM28 mRNA/DNA replication licensing factor (huMCM2)", "value": 2.4}, {"measurement": "Fold Increase In mRNA: Cell division protein kinase 6", "value": 3.1}, {"measurement": "Fold Increase In mRNA: Cytochrome b5", "value": 3.3}, {"measurement": "Fold Increase In mRNA: ESTs {23605}", "value": 2.5}, {"measurement": "Fold Increase In mRNA: ESTs {26259}", "value": 5}, {"measurement": "Fold Increase In mRNA: ESTs {32161}", "value": 2.5}, {"measurement": "Fold Increase In mRNA: ESTs {41700}", "value": 4}, {"measurement": "Fold Increase In mRNA: ESTs {46287}", "value": 3}, {"measurement": "Fold Increase In mRNA: ESTs {48537}", "value": 4.5}, {"measurement": "Fold Increase In mRNA: ESTs {51591}", "value": 2.3}, {"measurement": "Fold Increase In mRNA: ESTs {52371}", "value": 2.6}, {"measurement": "Fold Increase In mRNA: ESTs {128055}", "value": 2.8}, {"measurement": "Fold Increase In mRNA: ESTs {128990}", "value": 5}, {"measurement": "Fold Increase In mRNA: ESTs {131591}", "value": 2.3}, {"measurement": "Fold Increase In mRNA: ESTs {135326}", "value": 3.4}, {"measurement": "Fold Increase In mRNA: ESTs {141115}", "value": 2.3}, {"measurement": "Fold Increase In mRNA: ESTs {151339}", "value": 2.4}, {"measurement": "Fold Increase In mRNA: ESTs {174787}", "value": 2.4}, {"measurement": "Fold Increase In mRNA: ESTs {177150}", "value": 3.1}, {"measurement": "Fold Increase In mRNA: ESTs {180082}", "value": 2.1}, {"measurement": "Fold Increase In mRNA: ESTs {195079}", "value": 4.3}, {"measurement": "Fold Increase In mRNA: ESTs {221118}", "value": 4.4}, {"measurement": "Fold Increase In mRNA: ESTs {230447}", "value": 2.4}, {"measurement": "Fold Increase In mRNA: ESTs {242643}", "value": 4.1}, {"measurement": "Fold Increase In mRNA: ESTs {249347}", "value": 3.5}, {"measurement": "Fold Increase In mRNA: ESTs {264293}", "value": 3}, {"measurement": "Fold Increase In mRNA: ESTs {297463}", "value": 2.3}, {"measurement": "Fold Increase In mRNA: ESTs {301487}", "value": 3.8}, {"measurement": "Fold Increase In mRNA: ESTs {344156}", "value": 5.9}, {"measurement": "Fold Increase In mRNA: ESTs {364477}", "value": 2.5}, {"measurement": "Fold Increase In mRNA: ESTs {364618}", "value": 2.7}, {"measurement": "Fold Increase In mRNA: ESTs {375900}", "value": 3.1}, {"measurement": "Fold Increase In mRNA: ESTs {415795}", "value": 2.8}, {"measurement": "Fold Increase In mRNA: ESTs {429349}", "value": 3}, {"measurement": "Fold Increase In mRNA: ESTs {469725}", "value": 3.7}, {"measurement": "Fold Increase In mRNA: ESTs {471083}", "value": 2.6}, {"measurement": "Fold Increase In mRNA: ESTs {488092}", "value": 2.5}, {"measurement": "Fold Increase In mRNA: EXT1 = putative tumor suppressor/hereditary mult. exostoses candidate gene", "value": 2.4}, {"measurement": "Fold Increase In mRNA: Eukaryotic initiation factor 1A", "value": 2.4}, {"measurement": "Fold Increase In mRNA: Fibronectin (S00848, transformation-associated human fragment)", "value": 2.8}, {"measurement": "Fold Increase In mRNA: Gelsolin precursor", "value": 2.8}, {"measurement": "Fold Increase In mRNA: Guanine nucleotide exchange factor MSS4 (U74324) (−76 nucleotide)", "value": 2.7}, {"measurement": "Fold Increase In mRNA: HEK2 protein tyrosine kinase receptor", "value": 2.6}, {"measurement": "Fold Increase In mRNA: High mobility group protein HMG1 (X12597)", "value": 2.6}, {"measurement": "Fold Increase In mRNA: Histone H2AZ", "value": 2.5}, {"measurement": "Fold Increase In mRNA: Immunoglobulin rearranged H-chain V-region (C-D-J Hg)", "value": 3.6}, {"measurement": "Fold Increase In mRNA: KIAA0018 gene (D13643)", "value": 3.3}, {"measurement": "Fold Increase In mRNA: Kinesin-related protein", "value": 4.8}, {"measurement": "Fold Increase In mRNA: L-lactate dehydrogenase M chain (X02152, M17516)", "value": 3}, {"measurement": "Fold Increase In mRNA: Monoamine oxidase", "value": 5.5}, {"measurement": "Fold Increase In mRNA: Myeloblast KIAA0130 gene (D50920)", "value": 3.3}, {"measurement": "Fold Increase In mRNA: Neprilysin", "value": 2.8}, {"measurement": "Fold Increase In mRNA: Phospholipase A2 (M22430)", "value": 2.7}, {"measurement": "Fold Increase In mRNA: Pyruvate kinase (M26252) = human TCB gene encoding cytosolic thyroid hormone-binding protein", "value": 2.3}, {"measurement": "Fold Increase In mRNA: Ras-like GTP-binding protein RAN", "value": 2.6}, {"measurement": "Fold Increase In mRNA: S-adenosylmethionine decarboxylase", "value": 2.3}, {"measurement": "Fold Increase In mRNA: S-adenosylmethionine decarboxylase proenzyme (M21154)", "value": 2.5}, {"measurement": "Fold Increase In mRNA: STS (WI 12919)", "value": 7.7}, {"measurement": "Fold Increase In mRNA: STS (WI-8530)", "value": 5}, {"measurement": "Fold Increase In mRNA: Simian T-cell lymphotropic virus type I DNA for tax/rex region", "value": 2.3}, {"measurement": "Fold Increase In mRNA: Spectrin alpha chain", "value": 3.5}, {"measurement": "Fold Increase In mRNA: Thyroid receptor interactor (TRIP7) (L40357) (−92 nucleotide)", "value": 2.4}, {"measurement": "Fold Increase In mRNA: Tubulin beta 1 chain", "value": 2.8}, {"measurement": "Fold Increase In mRNA: UDP glucuronosyltransferase precursor (UGT2B15)", "value": 2.8}, {"measurement": "Fold Increase In mRNA: UDP-glucuronosyltransferase 2B7 precursor", "value": 3.9}, {"measurement": "Fold Increase In mRNA: Vacuolar ATP synthase subunit AC39; or bovine (P17694) NADH-ubiquinone oxidoreductase 49 kD subunit", "value": 3.1}, {"measurement": "Fold Increase In mRNA: Yeast guanine nucleotide-binding protein beta subunit-like protein", "value": 2.4}, {"measurement": "Fold Increase In mRNA: p0071 protein (X81889)", "value": 2.4}]}
